Measurements from US5922719A, “Coumarin dopamine D4 receptor antagonists” (priority 1997, dated 1999).
pKi: −log10 of the molar value. Where a name gives a salt, the structure may show the parent alone. Read-outs that look alike come from different tables or passages of the source.

Columns and labels:
[1] = target: human dopamine D2 (Long form) receptor (Homo sapiens, UniProt P14416); test: [3H]spiperone receptor binding assay, D2 (Long form) (CHO K1 membranes); conditions: [3H]spiperone 0.2 nM, human D2 (Long form), CHO K1 membranes, 60 minutes at 25° C.; read-out: D2 Ki
Chain of human dopamine D2 (Long form) receptor (P14416 whole entry): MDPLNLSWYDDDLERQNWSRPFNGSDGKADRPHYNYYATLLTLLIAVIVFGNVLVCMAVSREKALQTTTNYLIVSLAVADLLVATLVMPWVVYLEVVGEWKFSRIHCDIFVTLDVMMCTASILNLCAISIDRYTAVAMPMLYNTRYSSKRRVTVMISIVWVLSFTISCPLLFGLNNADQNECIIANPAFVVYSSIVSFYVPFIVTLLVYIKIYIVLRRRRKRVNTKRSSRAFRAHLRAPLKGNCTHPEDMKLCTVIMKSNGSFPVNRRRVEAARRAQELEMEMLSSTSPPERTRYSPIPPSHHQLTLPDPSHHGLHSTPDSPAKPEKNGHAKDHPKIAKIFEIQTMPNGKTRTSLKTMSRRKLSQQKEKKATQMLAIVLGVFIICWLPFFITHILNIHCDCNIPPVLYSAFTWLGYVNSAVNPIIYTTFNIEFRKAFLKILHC
Description: (§1) A cell line expressing human dopamine D2 (Long form) receptors was purchased from Oregon Health Sciences University, Portland, Ore. The D2 receptor cDNA was subcloned into an expression vector, pRc/CMV. The plasmids were transfected by electroporation into CHO K1 cells. A single stable transfectant, resistant to the antibiotic G418, was isolated and selected for use in the binding studies. For D4 binding, CHO K1 cells stably transfected to express the human recombinant dopamine D4.2 receptor subtype, as described by Shih, et al., "The expression and functional characterization of human dopamine D4.2 receptor in CHO K1 cells," Soc. Neurosci., 1995;21(Part 1):621.
(§2) CHO K1 cells expressing either human D2 and D4.2 receptors were grown in 162 cm^2 culture flasks in F12 medium (Gibco Laboratories, Grand Island, N.Y.) supplemented with 10% fetal bovine serum (FBS, Hyclone, Logan, UT) in an atmosphere of 5% Co2 /95% air at 37° C. Cells were grown until confluent, after which growth medium was removed and replaced with 0.02% ethylene diamine tetracetate (EDTA) in a phosphate-buffered saline solution (Sigma Chemical Co; St. Louis, Mo.) and scraped from the flasks. The cells were centrifuged at about 1000×g for 10 minutes at […] and then resuspended in TEM buffer (25 mM Tris-HCL, pH 7.4, 5 mM EDTA, and 6 mM MgCl2) for D2 or the D4.2 buffer (50 mM Tris-HCl, pH 7.4, 5 mM EDTA, 1.5 mM CaCl2, 5 mM KCl, and 120 mM NaCl) and homogenized. The membranes were pelleted by centrifugation at 20,000×g at […] for 20 minutes. Then the pellets were resuspended in an appropriate buffer at 1 mL/flask and stored at -70° C. until used in the receptor binding assay.
After 60 minutes incubation at 25° C., the incubations were terminated by rapid filtration through Whatmann GF/B glass fibre filters (soaked for 1 hour in 0.5% polyethylenimine) on a -cell harvester, with three washes of 1 mL ice-cold buffer. Individual filter disks containing the bound ligand were placed in counting vials with 4 mL of scintillation fluid (Ready Gel, Beckman Instrument Inc, Fullerton, Calif.) and then counted in a Beckman LS-6800 liquid scintillation counter at an efficiency of 45%. Nonspecific binding was defined in presence of 1 mM of haloperidol.
(§3) Saturation and competition binding data were analyzed using an iterative nonlinear least-square curve-fitting Ligand program. […] Experimental compounds were made up as stock solutions in dimethyl sulfoxide (DMSO). […] Each observation was carried out in triplicate. To allow these calculations, Kd values were measured for the interaction of various ligands with the receptor. […]

[2] = target: T1, human recombinant dopamine D4.2 receptor (Homo sapiens, UniProt P21917, DEL265-296); test: [3H]spiperone receptor binding assay, D4.2 (CHO K1 membranes); conditions: [3H]spiperone 0.2 nM, human D4.2, CHO K1 membranes, 60 minutes at 25° C.
T1 construct: expressed in transfected cells
T1 sequence (P21917 with tags, fused parts or gaps DEL265-296): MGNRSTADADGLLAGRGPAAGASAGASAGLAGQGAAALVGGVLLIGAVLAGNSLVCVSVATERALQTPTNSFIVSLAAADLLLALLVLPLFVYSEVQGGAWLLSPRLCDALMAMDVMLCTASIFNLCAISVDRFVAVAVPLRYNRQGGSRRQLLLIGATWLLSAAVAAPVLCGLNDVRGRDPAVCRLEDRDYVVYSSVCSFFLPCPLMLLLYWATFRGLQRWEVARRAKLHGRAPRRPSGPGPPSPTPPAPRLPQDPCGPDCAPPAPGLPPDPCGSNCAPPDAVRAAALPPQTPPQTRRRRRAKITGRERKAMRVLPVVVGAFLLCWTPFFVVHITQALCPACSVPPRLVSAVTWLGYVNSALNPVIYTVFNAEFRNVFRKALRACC
Description: as §1, with “Soc.” for “Soc. Neurosci., 1995;21(Part 1):621.”
as §2, with “Cells” for “CHO K1 cells expressing either human D2 and D4.2 receptors were grown in 162 cm^2 culture flasks in F12 medium (Gibco Laboratories, Grand Island, N.Y.) supplemented with 10% fetal bovine serum (FBS, Hyclone, Logan, UT) in an atmosphere of 5% Co2 /95% air at 37° C. Cells”
After 60 minutes incubation at 25° C., the incubations were terminated by rapid filtration through Whatmann GF/B glass fibre filters (soaked for 1 hour in 0.5% polyethylenimine) on a -cell harvester, with three washes of 1 mL ice-cold buffer. […] Nonspecific binding was defined in presence of 1 mM of haloperidol.
as §3

Row | Compound | pKi [1] | pKi ([2]; read-out: D4 Ki) | pKi ([2]; D4 Ki)
1 | O=c1ccc2ccc(CN3CCN(c4cccc(Cl)c4)CC3)cc2o1 [Example 9, 7-[4-(3-Chloro-phenyl)-piperazin-1-ylmethyl]-chromen-2-one] | < 5.00 | 7.64 | 
2 | O=c1ccc2ccc(CN3CCN(c4cccc(C(F)(F)F)c4)CC3)cc2o1 [Example 10, 7-[4-(3-Trifluoromethyl-phenyl)-piperazin-1-ylmethyl]-chromen-2-one] | 5.23 | 7.62 | 
3 | Cc1ccc(N2CCN(Cc3ccc4oc(=O)ccc4c3)CC2)cc1 [Example 36, 6-(4-p-Tolyl-piperazin-1-ylmethyl)-chromen-2-one] | 5.23 |  | 7.96
4 | Cc1ccccc1N1CCN(Cc2ccc3ccc(=O)oc3c2)CC1 [Example 4, 7-(4-o-Tolyl-piperazin-1-ylmethyl)-chromen-2-one] | 5.71 |  | 7.79
5 | COc1cccc(N2CCN(Cc3ccc4oc(=O)ccc4c3)CC2)c1 [Example 47, 6-[4-(3-Methoxy-phenyl)-piperazin-1-ylmethyl]-chromen-2-one] | 5.15 | 7.24 | 
6 | O=Cc1ccc(N2CCN(Cc3ccc4ccc(=O)oc4c3)CC2)cc1Cl [Example 11, 2-Chloro-4-[4-(2-oxo-2H-chromen-7-ylmethyl)-piperazin-1-yl]-benzaldehyde] | < 5.23 | 7.61 | 
7 | O=c1ccc2ccc(CN3CCN(c4cccc(F)c4)CC3)cc2o1 [Example 22, 7-[4-(3-Fluoro-phenyl)-piperazin-1-ylmethyl]-chromen-2-one] | 5.40 | 7.36 | 

The next lines start with results.

Row | pKi [1] | pKi ([2]; read-out: D4 Ki) | Compound | pKi ([2]; D4 Ki)
8 | 5.74 | 7.39 | O=c1ccc2ccc(CN3CCN(c4cccc(Cl)c4Cl)CC3)cc2o1 [Example 21, 7-[4-(2,3-Dichloro-phenyl)-piperazin-1-ylmethyl]-chromen-2-one] | 
9 | 5.23 | 7.40 | Cc1cccc(N2CCN(Cc3ccc4ccc(=O)oc4c3)CC2)c1Cl [Example 20, 7-[4-(2-Chloro-3-methyl-phenyl)-piperazin-1-ylmethyl]-chromen-2-one] | 
10 | < 5.23 | 7.74 | O=c1ccc2cc(CN3CCN(c4ccc(CO)c(F)c4)CC3)ccc2o1 [Example 40, 6-[4-(3-Fluoro-4-hydroxymethyl-phenyl)-piperazin-1-ylmethyl]-chromen-2-one] | 
11 | 5.92 | 7.82 | O=c1ccc2cc(CN3CCN(c4cccc(Cl)c4Cl)CC3)ccc2o1 [Example 39, 6-[4-(2,3-Dichloro-phenyl)-piperazin-1-ylmethyl]-chromen-2-one] | 
12 | 5.49 | 8.06 | Cc1cccc(N2CCN(Cc3ccc4oc(=O)ccc4c3)CC2)c1C [Example 35, 6-[4-(2,3-Dimethyl-phenyl)-piperazin-1-ylmethyl]-chromen-2-one] | 
13 | 5.14 | 7.89 | O=c1ccc2cc(CN3CCN(c4ccc(CO)c(Cl)c4)CC3)ccc2o1 [Example 38, 6-[4-(3-Chloro-4-hydroxymethyl-phenyl)-piperazin-1-ylmethyl]-chromen-2-one] | 
14 | 6.16 | 7.72 | Cc1cccc(N2CCN(Cc3ccc4ccc(=O)oc4c3)CC2)c1C [Example 8, 7-[4-(2,3-Dimethyl-phenyl)-piperazin-1-ylmethyl]-chromen-2-one] | 
15 | < 5.23 | 7.17 | O=c1ccc2ccc(CN3CCN(c4ccccn4)CC3)cc2o1 [Example 25, 2H-1-Benzopyran-2-one, 7-[[4-(2-pyridinyl)-1-piperazinyl]methyl]-, dihydrochloride] | 
16 | 6.00 | 7.48 | O=c1ccc2ccc(CN3CCN(c4ccccc4F)CC3)cc2o1 [Example 18, 7-[4-(2-Fluoro-phenyl)-piperazin-1-ylmethyl]-chromen-2-one] | 
